Series [1] addresses T1, IDE (Homo sapiens, UniProt P14735). The series is described as follows: In vitro IDE enzymatic assay (hydrolysis of FRET1, SP1, FAβB, 125I-insulin or insulin by HTRF). It counts as biochemical. The arrangement: made in house; host or cells: bacteria. As to conditions: for IC50: commercially available hydroxamic acids.
Description: Degradation of unmodified recombinant human insulin (Sigma-Aldrich) and FITC-ins [28] (Invitrogen) was assessed using a homogeneous time-resolved fluorescence (HTRF)-based assay (CIS-Bio).
Series [2] concerns MMP-2. As to conditions: best known target MMP-2; no reference given; cited from earlier work.
Series [3] deals with T1, IDE. The series is described as follows: Cell-based assays (not shown).
The target in series [4] is T1, IDE. Nature of the series: High-throughput screening, Aβ degradation assay. Format: biochemical. As to conditions: high-throughput screening hit. The text has this: The few IDE inhibitors currently in use are generally non-selective and/or highly toxic, and all suffer from extremely low potency, requiring mM concentrations to achieve complete inhibition (Table S1). To develop improved inhibitors of IDE, we initially conducted high-throughput screening on ∼115,000 compounds, using a previously developed Aβ degradation assay. Although several inhibitors were discovered, most of these were either toxic, thiol-alkylating compounds [18] […] Among the remaining inhibitors, just a single compound, known as nullscript

Series [5] addresses T1, IDE. As to conditions: cited from earlier work; for IC50: known IDE inhibitors, no reference given.
The test system of series [6] is MMP-3. As to conditions: best known target MMP-3; no reference given; cited from earlier work.
The test system of series [7] is MMP-13. As to conditions: best known target MMP-13; no reference given; cited from earlier work.
The test system of series [8] is TACE. Particulars: best known target TACE; no reference given; cited from earlier work.
Series [9] concerns MMP-8. Particulars: best known target MMP-8; no reference given; cited from earlier work.
The subject of series [10] is IR autophosphorylation (Tyr 1146) in CHO-IR cells. Nature of the series: IR autophosphorylation assay (ELISA). It counts as cell-based, human. Particulars: CHO-IR cells cold-loaded with insulin, 10 µM inhibitor, 5 min at 37°C. As for the experimental part:
CHO-IR cells were grown to near confluency in 6-well plates, washed, then starved for 6 h in insulin-free medium (DMEM/0.1% BSA). Cells were then cold-loaded with human insulin essentially as described. Briefly, after cooling the cells to 4°C, the medium was replaced with ice-cold HBSS/1% BSA supplemented with insulin (10 nM), incubated at 4°C for 1 h, washed 3 times with ice-cold HBSS/1% BSA. After addition of ice-cold HBSS/1% BSA supplemented with IDE inhibitors (10 µM) or DMSO, the cells were incubated at 37°C for 5 min, then rapidly cooled on ice. Cell lysates were harvested using manufacturer-provided cell-lysis buffer (Cell Signaling Technology) supplemented with additional phosphatase inhibitors (Millipore). IR autophosphorylation (Tyr 1146) and total IR levels were quantified by ELISAs (Cell Signaling Technology), and confirmed by western blotting with the same antibodies used for ELISAs or GAPDH as a loading control.

Series [11] has as its system CHO-IR cells. The series is described as follows: Quantification of prebound 125I-insulin catabolism. It counts as cell-based. As to conditions: 10 µM inhibitor, 5 min at 37°C. Here is the method: Confluent monolayers of CHO-IR cells grown in 6-well culture dishes were cold loaded with 240 pM ^125I-insulin for 1 h and washed 3 times with ice-cold HBSS/1% BSA. […] Following harvesting of cells by scraping, ^125I levels were quantified by gamma counter (Beckman).

For series [12], the system named is CHO-IR cells. Nature of the series: Cell-based extracellular insulin degradation assay, CHO-IR cells. The text has this: (§1) Recombinant human insulin (Sigma) was applied to CHO-IR cells or HeLa cells grown to near-confluency on 96-well plates under normal cell culture conditions, and its disappearance over time in the presence of different concentrations of IDE inhibitors or vehicle was quantified using a HTRF-based insulin assay (CIS-Bio). CHO-IR cells were a generous gift from Dr. Michel Bernier (National Instutute on Aging) and HeLa cells were purchased from American Type Culture Collection.

Series [13] has as its system CHO-IR cells.
Series [14] relates to HeLa cells. Nature of the series: Cell-based extracellular insulin degradation assay, HeLa cells.
From the text: as §1

Series [15] has as its target T2, cathepsin D (Bos taurus, UniProt P80209).
T2 construct: purchased Sigma-Aldrich
Nature of the series: Cathepsin D activity (Cathepsin D Assay Kit). Format: biochemical.
Description: Activity of cathepsin B was assessed by monitoring hydrolysis of Z-LR-AMC (Enzo Life Sciences International), that of cathepsin D using the Cathepsin D Assay Kit (Sigma-Aldrich), and that of the 20S proteasome using the 20S Proteasome Assay Kit for Drug Discovery (Enzo Life Sciences International).

Series [16] deals with CHO-IR cells. The series is described as follows: Live-cell imaging of intracellular insulin catabolism (FITC-ins). Format: cell-based. As to conditions: FITC-ins-loaded CHO-IR cells, Ii1 10 µM, 22°C. Here is the method:
CHO-IR cells were cultured on poly-D-lysine glass bottom culture dishes (MatTek Corp.), loaded with FITC-ins (2 µM; Invitrogen) for 2 h at 37°C, washed with Hank's balanced salt solution (HBSS), then imaged consecutively at fixed intervals by fluorescence microscopy at 22°C. Intracellular and extracellular fluorescence in the resulting images was quantified using MetaMorph software according to manufacturer's recommendations (Molecular Devices).

Setting [17] is: focused library of retro-inverso peptide hydroxamates Xaa-Arg-Tyr, modification at P1', Fig. 2B, read-out: Ki.

“And” between values parts separate entries of the source, which are not always exact repeats. Equal entries are not always repeated. Where two headings read alike, the source gives them in different places.

T1 sequence (P14735 whole entry): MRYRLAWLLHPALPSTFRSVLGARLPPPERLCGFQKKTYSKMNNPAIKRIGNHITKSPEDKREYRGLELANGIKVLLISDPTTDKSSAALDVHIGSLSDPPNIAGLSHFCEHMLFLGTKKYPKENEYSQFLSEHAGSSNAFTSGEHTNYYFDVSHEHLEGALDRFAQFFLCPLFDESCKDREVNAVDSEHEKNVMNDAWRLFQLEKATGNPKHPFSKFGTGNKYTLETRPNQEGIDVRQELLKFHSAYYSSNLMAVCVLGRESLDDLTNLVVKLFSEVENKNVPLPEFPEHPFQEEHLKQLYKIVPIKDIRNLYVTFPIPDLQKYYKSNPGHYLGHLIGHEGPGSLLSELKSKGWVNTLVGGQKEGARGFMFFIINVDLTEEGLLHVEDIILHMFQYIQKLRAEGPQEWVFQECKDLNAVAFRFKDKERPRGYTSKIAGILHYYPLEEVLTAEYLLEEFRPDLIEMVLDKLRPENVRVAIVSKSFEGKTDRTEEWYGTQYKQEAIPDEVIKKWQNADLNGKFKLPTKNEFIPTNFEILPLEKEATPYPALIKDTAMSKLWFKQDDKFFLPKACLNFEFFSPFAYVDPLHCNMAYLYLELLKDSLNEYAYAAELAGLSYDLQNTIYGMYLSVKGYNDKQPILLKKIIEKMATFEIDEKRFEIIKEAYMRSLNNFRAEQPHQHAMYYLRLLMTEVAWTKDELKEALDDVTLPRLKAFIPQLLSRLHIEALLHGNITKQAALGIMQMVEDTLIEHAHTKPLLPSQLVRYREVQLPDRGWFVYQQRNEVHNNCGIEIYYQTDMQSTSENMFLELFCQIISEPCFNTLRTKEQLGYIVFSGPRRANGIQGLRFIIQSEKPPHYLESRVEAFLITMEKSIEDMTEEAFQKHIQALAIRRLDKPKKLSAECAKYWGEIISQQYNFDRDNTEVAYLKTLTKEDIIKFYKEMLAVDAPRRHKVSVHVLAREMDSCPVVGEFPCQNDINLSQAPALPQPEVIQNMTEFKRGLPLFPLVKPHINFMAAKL
T2 sequence (P80209 45-390): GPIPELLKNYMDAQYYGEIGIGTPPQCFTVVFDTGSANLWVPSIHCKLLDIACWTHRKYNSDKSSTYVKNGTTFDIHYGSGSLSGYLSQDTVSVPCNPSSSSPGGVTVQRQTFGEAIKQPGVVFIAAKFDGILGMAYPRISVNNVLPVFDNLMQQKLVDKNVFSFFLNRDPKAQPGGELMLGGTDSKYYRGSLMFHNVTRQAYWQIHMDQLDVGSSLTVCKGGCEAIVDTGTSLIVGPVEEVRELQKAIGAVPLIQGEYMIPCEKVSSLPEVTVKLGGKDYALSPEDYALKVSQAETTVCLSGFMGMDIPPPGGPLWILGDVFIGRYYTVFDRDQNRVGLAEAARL

With `O=C(NO)[C@@H](Cc1ccccc1)NS(=O)(=O)c1ccc(-c2ccccc2)cc1` [MMP-2/9 Inhibitor II, reference compound], the 50% inhibitory concentration (IC50) in [1] is above 100 µM; in series [2], 0.017 µM.

As for `N=C(N)NCCC[C@@H](NC(=O)[C@H](N)Cc1ccc(O)cc1)C(=O)N[C@@H](CC(=O)NO)Cc1cccc2ccccc12` [1-naphthylalanine], the Ki in series [1] (setting [17]) is 0.7 µM.

Consider `N=C(N)NCCC[C@@H](NC(=O)[C@H](N)Cc1ccc(O)cc1)C(=O)N[C@@H](CC(=O)NO)C(c1ccccc1)c1ccccc1` [diphenylalanine], for which the Ki in [1] (setting [17]) is above 500 µM.

As to `O=C(CCCN1C(=O)c2cccc3cccc(c23)C1=O)NO` [Nullscript], the IC50 in [1] came to 0.9 µM. The “effect in cell-based assays” value in [3] is reported as “ineffective”. For the same compound, the IC50 values result in [4] is recorded as “submicromolar”.

As for `N=C(N)NCCC[C@@H](NC(=O)[C@H](N)Cc1ccc(O)cc1)C(=O)N[C@@H](CC(=O)NO)Cc1ccc2ccccc2c1` [2-naphthylalanine], the “gain in potency relative to Phe at P1'” value in series [1] (retro-inverso library) is around 100 fold.

In the case of `c1cnc2c(c1)ccc1cccnc12` [1,10 phenanthroline], the 50% inhibitory concentration (IC50) in series [5] was 300 µM.

As to `N=C(N)NCCC[C@@H](NC(=O)[C@H](N)Cc1ccc(O)cc1)C(=O)N[C@@H](CC(=O)NO)Cc1cccc(F)c1` [3-fluorophenylalanine], the Ki in series [1] (setting [17]) was 7 µM.

Consider `COc1ccc(S(=O)(=O)N(CC(=O)NO)CC(C)C)cc1` [MMP-3 Inhibitor II, reference compound], for which the IC50 is above 100 µM in [1] and 0.13 µM in series [6].

Consider `O=C(O)CN(CCN(CC(=O)O)CC(=O)O)CC(=O)O` [EDTA], for which the “inhibition of IDE” value in series [5] (ref [18], [40]) was “does not inhibit IDE except after prolonged incubation”.

Turning to `CNC(=O)C(CCc1ccccc1)NC(=O)C(CC(=O)NO)CC(C)C` (stereo not shown) [MMP Inhibitor III, reference compound], the values for the concentration for half-maximal inhibition (IC50) in series [1] and in series [7] were above 100 µM and 0.0001 µM, respectively.

`CC(C)(C)c1ccc(C[C@H](CC(=O)NO)NC(=O)[C@@H](CCCNC(=N)N)NC(=O)[C@H](N)Cc2ccc(O)cc2)cc1` [4-(tert-butyl)-phenylalanine]: in series [1] (setting [17]), the Ki amounted to 16 µM.

In the case of `N#Cc1ccc(-c2ccc(OCCC(=O)NO)cc2)cc1` [MMP-3 Inhibitor VII, reference compound], the IC50 is above 100 µM in series [1] and 0.025 µM in series [6].

Turning to `CC(C)C[C@H](CC(=O)NO)C(=O)N[C@H](C(=O)N[C@@H](C)C(=O)NCCN)C(C)(C)C` [TAPI-2, reference compound], the 50% inhibitory concentration (IC50) in series [1] was 11 µM; in [8] it was 5 µM.

On to `N=C(N)NCCC[C@@H](NC(=O)[C@H](N)Cc1ccc(O)cc1)C(=O)N[C@@H](CC(=O)NO)Cc1ccc(F)cc1` [4-fluorophenylalanine], for which the Ki in series [1] (setting [17]) is 7 µM.

For the compound `CNC(=O)[C@H](Cc1c[nH]c2ccccc12)NC(=O)[C@@H](CC(=O)NO)CC(C)C` [GM6001 (Galardin), reference compound], the half-inhibitory concentration (IC50) was 6 µM in [1] and […] in series [9].

For the compound `COc1ccc(S(=O)(=O)N2Cc3ccccc3C[C@@H]2C(=O)NO)cc1` [MMP-8 Inhibitor I, reference compound], the values for the half-inhibitory concentration (IC50) in series [1] and in [9] were above 100 µM and 0.004 µM, respectively.

`CC(C)C[C@H](CC(=O)NO)C(=O)N[C@@H](Cc1ccc2ccccc2c1)C(=O)N[C@@H](C)C(=O)NCCN` [TAPI-1, reference compound]: the concentration for half-maximal inhibition (IC50) in [1] was 3 µM; in [8], 0.1 µM.

For the compound `CC(C)C[C@H](CC(=O)NO)C(=O)N[C@@H](Cc1ccc2ccccc2c1)C(=O)N[C@@H](C)C(N)=O` [TAPI-0, reference compound], the IC50 was 9 µM in [1] and 0.0002 µM in series [7].

Take `CC(=O)N[C@H](CCC(=O)NCCNc1cccc2c(S(=O)(=O)O)cccc12)C(=O)N[C@H](Cc1ccc(O)cc1)C(=O)N[C@H](Cc1ccc(C(=O)c2ccccc2)cc1)C(=O)N[C@@H](CC(=O)NO)Cc1ccc2ccccc2c1` [ML3-XF, Hx-2Nap-Bpa-Tyr-Glu(EDANS)-Ac]: the “insulin-stimulated IR autophosphorylation” value in series [10] is given as “consistently potentiated”. Besides, the “decrease of prebound 125I-insulin” value in series [11] is “inhibited completely”.

With `CCN1C(=O)C=CC1=O` [N-ethylmaleimide], in [5], the IC50 is 220 µM.

For `N=C(N)NCCC[C@H](NC(=O)[C@@H](CC(=O)NO)Cc1ccc2ccccc2c1)C(=O)N[C@@H](Cc1c[nH]c2ccccc12)C(=O)N[C@@H](CCC(=O)O)C(N)=O` [Ii1], the “insulin-stimulated IR autophosphorylation” value in [10] is recorded as “consistently potentiated”. Besides, the “IC50 for inhibition of degradation of extracellular insulin” value in series [12] and in series [14] was “comparable to that obtained in vitro” in each case. For the same compound, the “insulin catabolism (progress curve)” value in series [12] (Ii1 10 µM) and in series [14] (Ii1 10 µM) was “completely inhibited” each time. Also, the toxicity entry in series [13] is listed as “No toxicity”. In series [1] (all substrates tested), the “Hill slopes for inhibition” value is listed as below 1. For the same compound, the Ki in series [1] (conventional peptide hydroxamates, Fig. 1, read-out: Ki) was 0.0017 µM and ~0.0017 µM; in [1] (ki^app, Substrate: 125I-Ins), 0.0163 ± 0.0042 µM; in series [1] (ki^app, Substrate: FAβB), 0.0157 ± 0.002 µM; in [1] (ki^app, Substrate: HTRF-Ins) it was 0.0166 ± 0.0031 µM; in series [1] (ki^app, Substrate: SP1) it was 0.00255 ± 0.00084 µM. In addition, the mode of inhibition result in series [1] (hydrolysis of Aβ) and in [1] (hydrolysis of insulin) was “purely competitive” in each case. In addition, the “inhibition of cathepsin D” value in series [15] is “not”. Further, in series [16], the “intra- and extracellular FITC fluorescence over time” value is recorded as “remained essentially constant”. Further, in [11], the “decrease of prebound 125I-insulin” value is reported as “inhibited completely”.
